Test system: OLFML3
Assay: RT-qPCR of OLFML3 in PTEN-KO SF763 cells
Type: cell-based, human
Settings: shC PTEN-KO SF763 cells; SC75741 5 μM; 8 hours
Description: Cell Culture. The GBM cell lines U87, U251, SF763, LN229, and CT2A, as well as 293T cells were cultured in Dulbecco's Modified Eagle's Medium (DMEM; Gibco, #11995-065). The mouse glioma cell line GL261 cells and SIM-A9 microglia were cultured in Dulbecco's Modified Eagle Medium-Ham's F12 medium (Gibco, #10565-018). HMC3 microglia were cultured in Eagle's Minimum Essential Medium (ATCC, #30-2003). THP-1 macrophages were cultured in RPMI 1640 medium (Gibco, #11875093). All cell lines were cultured in the indicated medium containing 10% fetal bovine serum (FBS; Fisher Scientific, #16140071) and 1:100 antibiotic-antimycotic (Gibco, #15140-122), and were purchased from the American Type Culture Collection (ATCC). Human GSCs (GSC23 and GSC7-10) and mouse GBM tumor-derived 005 GSCs and QPP7 GSCs were cultured in neural stem cell (NSC) proliferation media (Millipore, #SCM005) containing 20 ng/mL epidermal growth factor (EGF; PeproTech, #AF-100-15) and basic fibroblast growth factor (bFGF; PeproTech, #100-18B). Human GSCs were gifted by Dr. Frederick F. Lang from the Brain Tumor Center (The University of Texas MD Anderson Cancer Center). […]
Quantitative real-time PCR (RT-qPCR). […] RNA was quantified by NanoDrop spectrophotometers and then the All-In-One 5× RT MasterMix (Applied Biological Materials, #G592) was used to reverse-transcribe RNA into cDNA in T100 Thermal Cycler (Bio-Rad). […]

O=C(c1ccccc1)c1ccc2nc(NC(=O)c3csc(C4CCN(c5ncnc6ccsc56)CC4)n3)[nH]c2c1 [SC75741]
mRNA expression of OLFML3: upregulated

— patent publication US20250186396A1, “COMPOSITIONS AND METHODS FOR THE TREATMENT OF GLIOBLASTOMA WITH A DUAL TARGETING ANTI-TUMOR COMPOSITION” (Northwestern University, priority 2023, published 2025)
